Source: patent US6429212B1, “Medicinal composition” (Ishihara Sangyo Kaisha Ltd., priority 1996, dated 2002)

How the values were obtained:
[1] = test system: angiogenesis under skin of mice; assay: Angiogenesis under skin of mice (b-FGF matrigel, amount of hemoglobin); format: in vivo, BALB/c male mice; set-up: key to Amount of hemoglobin, value in parentheses (Control = 100): % of control (control = 100), hemoglobin per matrigel; conditions: for Amount of hemoglobin, value in parentheses (Control = 100): experiment (b) (Table 15)
Procedure: By subcutaneously injecting a mixture having recombinant human fibroblast growth factor-basic added to matrigel, to the back of a mice, angiogenesis occurs under skin of the mice. By measuring the amount of hemoglobin in matrigel, angiogenesis can be quantified. Influences of the compounds of the present invention to angiogenesis were observed.
Matrigel (trademark; basement membrane matrix, phenol is not included, purchased from Becton Dickinson Labware) was added to Dulbecco's modified Eagle's medium (purchased from Sigma), so that the concentration was 9 mg/ml. Recombinant Human Fibroblast Growth Factor-basic (b-FGF, produced by Intergen) was added thereto, so that the concentration was 2 μg/700 μl. The mixture was subcutaneously injected to 6-week BALB/c male mice (Charles River Japan Inc.) in an amount of 700 μl per mouse. Everyday after matrigel injection, a suspension having the compound of the present invention added to 0.8% Tween 80 (purchased from Nacalai Tesque), so that the predetermined concentration could be obtained, was intraperitoneally injected to the mice. 8 days after matrigel injection, matrigel was taken out from the mice, which was then placed in 200 μl of 1% NH4OH at room temperature for 4 hours, to extract hemoglobin. The extraction and matrigel together were subjected to centrifugal separation (10000 rpm, 5 min). 100 μl of the obtained supernatant and 500 μl of Drabkin's reagent (purchased from Sigma) were mixed and left at room temperature. After left more than 15 minutes, absorbance of the supernatant at a wavelength of 540 nm was measured by using a spectrophotometer SPECTRA max 250 (produced by Molecular Devices). The amount of hemoglobin in the supernatant was obtained from the standard curve prepared by using hemoglobin standard (purchased from Sigma), and the amount of hemoglobin per matrigel obtained from a mouse was calculated.
The amount of the hemoglobin in each treatment fraction was corrected by the amount of hemoglobin wherein matrigel having no b-FGF added was injected to the mice, and 0.8% Tween 80 as a solvent alone was injected everyday.
Influences of the compounds of the present invention to angiogenesis under skin of mice were observed, in the same manner as in Test Example 8.

[2] = test system: TNF-α production or secretion by human leukemia cells HL-60 (Okadaic acid stimulation); assay: Influence on TNF-α production or secretion by HL-60 cells stimulated by Okadaic acid (ELISA of supernatant); format: cell-based; conditions: for amount of TNF-α in the supernatant, Okadaic acid alone = 100%: HL-60, Okadaic acid 50 nM, 16 hours (Table 8); for amount of TNF-α, Okadaic acid alone = 100%: HL-60, Okadaic acid stimulation (Table 10)
Procedure: (§1) Human leukemia cells HL-60 produce tumor necrosis factor (TNF-α) by stimulation of Okadaic acid (9,10-Deepithio-9,10-didehydroacanthifolicin) or 12O-tetradecanoyl phorbol-13-acetate (TPA). Influences of the compounds of the present invention to production or secretion of TNF-α by them were observed.
Human leukemia cells (HL-60) were cultured by using a RPMI 1640 culture medium (including 5% fetal bovine serum), in a carbonic acid gas incubator (5% CO2, humidified, 37° C.). Then, the cells were pre-cultured in a RPMI 1640 culture medium (including 10% fetal bovine serum). Okadaic acid was added thereto, so that the final concentration was 50 nM based on the HL-60 cells (5×10^5 cells/ml) in an exponentially growing stage. Then, the compound of the present invention was added thereto so that the predetermined concentration could be obtained, to prepare a cell suspension, which was then cultured in a carbonic acid gas incubator (5% CO2, humidified, 37° C.). In this culture, a multiplate having 24 holes (produced by Corning) was used, and the cell suspension was injected in an amount of 0.5 ml per hole, to culture the cells.
16 hours after the culture started, the cells were removed by centrifugation (1000-2000 rpm×10 min), and the amount of TNF-α in the supernatant was measured in accordance with the method of Amersham, by using human TNF-α ELISA system (produced by Amersham).
The values in the Table are values obtained by supposing the amount of TNF-αin the supernatant of the culture medium when treated only with Okadaic acid having a final concentration of 50 nM, 100%.
Influences of the compounds of the present invention to production or secretion of TNF-α by Okadaic acid stimulation were observed, in the same manner as in Test Example 1.

[3] = test system: TNF-α production or secretion by human leukemia cells HL-60 (TPA stimulation); assay: Influence on TNF-α production or secretion by HL-60 cells stimulated by TPA (ELISA of supernatant); format: cell-based; conditions: for amount of TNF-α in the supernatant, TPA alone = 100%: HL-60, TPA 10 nM, 16 hours (Table 9); for amount of TNF-α, TPA alone = 100%: HL-60, TPA stimulation (Table 11)
Procedure: as §1
The same operation was carried out as in Test Example 1, except that TPA (produced by Sigma) having a final concentration of 10 nM was used, instead of Okadaic acid having a final concentration of 50 nM.
The values in the Table are values obtained by supposing the amount of TNF-α in the supernatant of the culture medium when treated only with TPA having a final concentration of 10 nM, 100%.
Human leukemia cells (HL-60) produce tumor necrosis factor (TNF-α) by stimulation of 12O-tetradecanoyl phorbol-13-acetate (TPA). The influences of the compounds of the present invention to production of TNF-αby it were observed.
Human leukemia cells (HL-60) were cultured by using a RPMI 1640 culture medium (including 5% fetal bovine serum), in a carbonic acid gas incubator (5% CO2, humidified, 37° C.). Then, the cells were pre-cultured in a RPMI 1640 culture medium (including 10% fetal bovine serum). TPA was added thereto, so that the final concentration was 10 nM based on the HL-60 cells (5×10^5 cells/ml) in an exponentially growing stage. Then, the compound of the present invention was added thereto so that the predetermined concentration could be obtained, to prepare a cell suspension, which was then cultured in a carbonic gas incubator (5% CO2, humidified, 37° C.). In this culture, a multiplate having 24 holes (produced by Corning) was used, and the cell suspension was injected in an amount of 0.5 ml per hole, to culture the cells.
16 hours after the culture started, the cells were removed by centrifugation(1000-2000 rpm×10 min), and the amount of TNF-α in the supernatant was measured in accordance with the method of Amersham, by using human TNF-α ELISA system (produced by Amersham).
The values are obtained by supposing the amount of TNF-α when treated only with TPA having a final concentration of 10 nM, 100%.
The influences of the compounds of the present invention to production or secretion of TNF-α by TPA stimulation were observed, in the same manner as in Test Example 2.

Row | SMILES | amount of TNF-α in the supernatant, Okadaic acid alone = 100% ([2]; compound 1 nM) [%] | amount of TNF-α in the supernatant, Okadaic acid alone = 100% ([2]; compound 10 nM) [%] | amount of TNF-α in the supernatant, Okadaic acid alone = 100% ([2]; compound 100 nM) [%] | amount of TNF-α in the supernatant, Okadaic acid alone = 100% ([2]; compound 0.3 μM) [%] | amount of TNF-α in the supernatant, TPA alone = 100% ([3]; compound 10 nM) [%] | amount of TNF-α in the supernatant, TPA alone = 100% ([3]; compound 100 nM) [%] | amount of TNF-α in the supernatant, TPA alone = 100% ([3]; compound 0.3 μM) [%] | melting point [°C] | amount of TNF-α, TPA alone = 100% ([3]; compound 10 μM) [%] | other results
1 | C[C@H](C1CCCCC1)N1C(=O)c2c(F)c(F)c(F)c(F)c2C1=O [Compound 69, (R)-2-(1-cyclohexylethyl)-4,5,6,7-tetrafluoro-1H-isoindole-1,3-dione] | 101 | 95 | 59 | 10 | 100 | 102 | 98 | – | – | Amount of hemoglobin, value in parentheses (Control = 100) ([1]; 1 mg/kg): 93; Amount of hemoglobin ([1]; 1 mg/kg, experiment (b), Control 83.3 (Table 15)): 77.2 μg/gel; Amount of hemoglobin, value in parentheses (Control = 100) ([1]; 5 mg/kg): 49; Amount of hemoglobin ([1]; 5 mg/kg, experiment (b), Control 83.3 (Table 15)): 41.1 μg/gel
2 | C[C@@H](c1ccccc1)N1C(=O)c2cccc([N+](=O)[O-])c2C1=O [Compound 83, (S)-2-(1-phenylethyl)-4-nitro-1H-isoindole-1,3-dione] | 100 | 99 | 85 | 61 | 122 | 187 | 239 | 115 to 117 | – | –
3 | C[C@H](c1ccccc1)N1C(=O)c2cccc([N+](=O)[O-])c2C1=O [Compound 84, (R)-2-(1-phenylethyl)-4-nitro-1H-isoindole-1,3-dione] | 99 | 104 | 88 | 52 | 100 | 121 | 195 | 115 to 117 | – | –
4 | CC(C)c1cccc(C(C)C)c1N1Cc2ccccc2C1 [Compound 144, N-(2,6-diisopropylphenyl)isoindoline] | – | – | – | – | – | – | – | 130.9 to 132 | – | amount of TNF-α, TPA alone = 100% ([3]; compound 100 μM): 319%
5 | Cc1ccc2c(c1)C(=O)N(c1c(C(C)C)cccc1C(C)C)C2=O [Compound 171] | – | – | – | – | – | – | – | 162.9 to 163.2 | 421 | –
6 | CC(C)c1cccc(C(C)C)c1N1C(=O)c2ccc(C(C)(C)C)cc2C1=O [Compound 173, N-(2,6-diisopropylphenyl)-5-tert-butyl phthalimide] | – | – | – | – | – | – | – | 234 to 234.8 | 251 | –
7 | CC(C)c1cccc(C(C)C)c1N1C(=O)c2ccccc2C1=S [Compound 174, N-(2,6-diisopropylphenyl)thiophthalimide] | – | – | – | – | – | – | – | – | 682 | Amount of hemoglobin, value in parentheses (dose 0 = 100) ([1]; 100 mg/kg intraperitoneally everyday, 8 days after matrigel injection (Table 12)): 54; Amount of hemoglobin ([1]; 100 mg/kg intraperitoneally everyday, 8 days after matrigel injection, dose 0 = 307.3 (Table 12)): 164.8 μg/gel; amount of TNF-α, Okadaic acid alone = 100% ([2]; compound 1 μM): 96%; amount of TNF-α, Okadaic acid alone = 100% ([2]; compound 10 μM): 15%; amount of TNF-α, Okadaic acid alone = 100% ([2]; compound 100 μM): 0%; amount of TNF-α, TPA alone = 100% ([3]; compound 1 μM): 332%; amount of TNF-α, TPA alone = 100% ([3]; compound 100 μM): 1326%
8 | CCCCCCOc1ccc2c(c1)C(=O)N(c1c(C(C)C)cccc1C(C)C)C2=O [Compound 193] | – | – | – | – | – | – | – | 117 to 118 | – | –
9 | CSc1ccccc1N1C(=O)c2ccc(C)cc2C1=O [Compound 195] | – | – | – | – | – | – | – | 175 to 177 | – | –
